In patent publication US20250230154A1, “COMPOUND HAVING SHP2 PROTEIN DEGRADING ACTIVITY, AND MEDICAL USES THEREOF” (UBIX THERAPEUTICS, INC., priority 2021, published 2025):

Molecular target: T1, SHP2 protein (Homo sapiens, UniProt Q06124)
T1 sequence (Q06124 1-593): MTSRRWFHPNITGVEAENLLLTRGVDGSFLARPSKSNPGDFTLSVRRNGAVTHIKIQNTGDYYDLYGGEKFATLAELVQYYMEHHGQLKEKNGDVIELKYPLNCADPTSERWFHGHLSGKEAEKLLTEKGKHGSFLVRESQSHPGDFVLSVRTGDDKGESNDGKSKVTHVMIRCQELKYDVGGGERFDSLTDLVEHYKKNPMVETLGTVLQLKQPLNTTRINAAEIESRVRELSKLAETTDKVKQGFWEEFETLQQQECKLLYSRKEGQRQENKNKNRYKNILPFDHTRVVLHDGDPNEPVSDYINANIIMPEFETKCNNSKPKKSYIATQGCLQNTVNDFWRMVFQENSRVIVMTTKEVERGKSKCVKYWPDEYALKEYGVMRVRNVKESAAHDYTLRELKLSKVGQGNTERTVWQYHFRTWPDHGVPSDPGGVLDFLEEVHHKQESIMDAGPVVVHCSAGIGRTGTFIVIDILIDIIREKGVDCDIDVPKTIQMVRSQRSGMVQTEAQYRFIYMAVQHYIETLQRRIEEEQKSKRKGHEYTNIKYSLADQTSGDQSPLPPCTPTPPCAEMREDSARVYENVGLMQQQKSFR
Assay: Measurement of SHP2 protein degradation in MV-4-11 cells (western blotting)
Format: cell-based
Parameters: endogenous in cells; host or cells: MV-4-11
Conditions: for SHP2 degradation (%) 10 nM / SHP2 degradation (%) 100 nM / SHP2 degradation (%) 1000 nM: MV-4-11 cells, 24 hours
Outline: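 SHP2 protein levels were assessed by western blotting in MV-4-11 cells after a 24 hour compound treatment. Lysates were sonicated, centrifuged, normalized by BCA assay at 562 nm, run on Bis-tris 4-12% gels, transferred to NC membrane, probed with anti-SHPTP2 (70 kDa) and anti-GAPDH (37 kDa) antibodies, and detected on LI-COR Odyssey.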

SHP2 degradation (%) 10 nM [%] | SHP2 degradation (%) 100 nM [%] | SHP2 degradation (%) 1000 nM [%] | SHP2 protein degradation activity (in words) (comment on Table 4) | SMILES
4 | 95 | 97 | – | Cc1ncsc1-c1ccc(CNC(=O)[C@@H]2C[C@@H](O)CN2C(=O)[C@@H](NC(=O)C2(F)CC2)C(C)(C)C)c(OCCNC(=O)c2cnc(N3CCC(CCCC(=O)Nc4cccc(Sc5cnc(N6CCC(C)(CN)CC6)cn5)c4Cl)CC3)nc2)c1 [Example 89, 2-(4-(4-((3-((5-(4-(aminomethyl)-4-methylpiperidin-1-yl)pyrazin-2-yl)thio)-2-chlorophenyl)amino)-4-oxobutyl)piperidin-1-yl)-N-(2-(2-(((2S,4R)-1-((S)-2-(1-fluorocyclopropane-1-carboxamido)-3,3-dimethylbutanoyl)-4-hydroxypyrrolidine-2-carboxamido)methyl)-5-(4-methylthiazol-5-yl)phenoxy)ethyl)pyrimidine-5-carboxamide]
16.2 | 96.2 | – | – | Cc1ncsc1-c1ccc(CNC(=O)[C@@H]2C[C@@H](O)CN2C(=O)[C@@H](NC(=O)C2(F)CC2)C(C)(C)C)c(OCCN2CCN(c3ccc(C(=O)Nc4cccc(Sc5cnc(N6CCC(C)(CN)CC6)cn5)c4Cl)cn3)CC2)c1 [Example 82, N-(3-((5-(4-(aminomethyl)-4-methylpiperidin-1-yl)pyrazin-2-yl)thio)-2-chlorophenyl)-6-(4-(2-(2-(((2S,4R)-1-((S)-2-(1-fluorocyclopropane-1-carboxamido)-3,3-dimethylbutanoyl)-4-hydroxypyrrolidine-2-carboxamido)methyl)-5-(4-methylthiazol-5-yl)phenoxy)ethyl)piperazin-1-yl)nicotinamide]
83.1 | 98.2 | – | – | Cc1ncsc1-c1ccc(CNC(=O)[C@@H]2C[C@@H](O)CN2C(=O)[C@@H](NC(=O)C2CC2)C(C)(C)C)c(OCCCN2CCN(CC(=O)Nc3cccc(Sc4cnc(N5CCC(C)(CN)CC5)cn4)c3Cl)C(=O)C2)c1 [Example 80, (2S,4R)—N-(2-(3-(4-(2-((3-((5-(4-(aminomethyl)-4-methylpiperidin-1-yl)pyrazin-2-yl)thio)-2-chlorophenyl)amino)-2-oxoethyl)-3-oxopiperazin-1-yl)propoxy)-4-(4-methylthiazol-5-yl)benzyl)-1-((S)-2-(cyclopropanecarboxamido)-3,3-dimethylbutanoyl)-4-hydroxypyrrolidine-2-carboxamide]
90.5 | 97 | – | – | Cc1ncsc1-c1ccc(CNC(=O)[C@@H]2C[C@@H](O)CN2C(=O)[C@@H](NC(=O)C2(F)CC2)C(C)(C)C)c(OCCN2CCN(C(=O)CC(=O)Nc3cccc(Sc4cnc(N5CCC(C)(CN)CC5)cn4)c3Cl)[C@@H](C)C2)c1 [Example 63, (2S,4R)—N-(2-(2-((S)-4-(3-((3-((5-(4-(aminomethyl)-4-methylpiperidin-1-yl)pyrazin-2-yl)thio)-2-chlorophenyl)amino)-3-oxopropanoyl)-3-methylpiperazin-1-yl)ethoxy)-4-(4-methylthiazol-5-yl)benzyl)-1-((S)-2-(1-fluorocyclopropane-1-carboxamido)-3,3-dimethylbutanoyl)-4-hydroxypyrrolidine-2-carboxamide]
5.1 | 85.6 | – | – | Cc1ncsc1-c1ccc(CNC(=O)[C@@H]2C[C@@H](O)CN2C(=O)[C@@H](NC(=O)C2(F)CC2)C(C)(C)C)c(OCCN2CCN(CC(=O)Nc3cccc(Sc4cnc(N5CCC(C)(CN)CC5)cn4)c3Cl)CC2)c1 [Example 72, (2S,4R)—N-(2-(2-(4-(2-((3-((5-(4-(aminomethyl)-4-methylpiperidin-1-yl)pyrazin-2-yl)thio)-2-chlorophenyl)amino)-2-oxoethyl)piperazin-1-yl)ethoxy)-4-(4-methylthiazol-5-yl)benzyl)-1-((S)-2-(1-fluorocyclopropane-1-carboxamido)-3,3-dimethylbutanoyl)-4-hydroxypyrrolidine-2-carboxamide]

Further lines, the compound ahead of its results:

SMILES | SHP2 degradation (%) 10 nM [%] | SHP2 degradation (%) 100 nM [%] | SHP2 degradation (%) 1000 nM [%] | SHP2 protein degradation activity (in words) (comment on Table 4)
Cc1ncsc1-c1ccc(CNC(=O)[C@@H]2C[C@@H](O)CN2C(=O)[C@@H](NC(=O)C2(F)CC2)C(C)(C)C)c(OCC2CCN(C(=O)CCC(=O)Nc3cccc(Sc4cnc(N5CCC(C)(CN)CC5)cn4)c3Cl)CC2)c1 [Example 44, (2S,4R)—N-(2-((1-(4-((3-((5-(4-(aminomethyl)-4-methylpiperidin-1-yl)pyrazin-2-yl)thio)-2-chlorophenyl)amino)-4-oxobutanoyl)piperidin-4-yl)methoxy)-4-(4-methylthiazol-5-yl)benzyl)-1-((S)-2-(1-fluorocyclopropane-1-carboxamido)-3,3-dimethylbutanoyl)-4-hydroxypyrrolidine-2-carboxamide] | 71.5 | 95 | 95.5 | –
CC(=O)N[C@H](C(=O)N1C[C@H](O)C[C@H]1C(=O)NCc1ccc(-c2scnc2C)cc1OCC1CCN(C(=O)CC(=O)Nc2cccc(Sc3cnc(N4CCC(C)(CN)CC4)cn3)c2Cl)CC1)C(C)(C)C [Example 33, (2S,4R)-1-((S)-2-acetamido-3,3-dimethylbutanoyl)-N-(2-((1-(3-((3-((5-(4-(aminomethyl)-4-methylpiperidin-1-yl)pyrazin-2-yl)thio)-2-chlorophenyl)amino)-3-oxopropanoyl)piperidin-4-yl)methoxy)-4-(4-methylthiazol-5-yl)benzyl)-4-hydroxypyrrolidine-2-carboxamide] | 90 | 96.5 | – | –
Cc1ncsc1-c1ccc(CNC(=O)[C@@H]2C[C@@H](O)CN2C(=O)[C@@H](NC(=O)C2(F)CC2)C(C)(C)C)c(OCC2CCN(C(=O)CC(=O)Nc3cccc(Sc4ncc(N5CCC(C)(CN)CC5)nc4N)c3Cl)CC2)c1 [Example 32, (2S,4R)—N-(2-((1-(3-((3-((3-amino-5-(4-(aminomethyl)-4-methylpiperidin-1-yl)pyrazin-2-yl)thio)-2-chlorophenyl)amino)-3-oxopropanoyl)piperidin-4-yl)methoxy)-4-(4-methylthiazol-5-yl)benzyl)-1-((S)-2-(1-fluorocyclopropane-1-carboxamido)-3,3-dimethylbutanoyl)-4-hydroxypyrrolidine-2-carboxamide] | 75 | 95 | – | –
Cc1ncsc1-c1ccc(CNC(=O)[C@@H]2C[C@@H](O)CN2C(=O)[C@@H](NC(=O)C2(F)CC2)C(C)(C)C)c(OCCC2CCN(C(=O)C(C)(C)C(=O)Nc3cccc(Sc4cnc(N5CCC(C)(CN)CC5)cn4)c3Cl)CC2)c1 [Example 49, (2S,4R)—N-(2-(2-(1-(3-((3-((5-(4-(aminomethyl)-4-methylpiperidin-1-yl)pyrazin-2-yl)thio)-2-chlorophenyl)amino)-2,2-dimethyl-3-oxopropanoyl)piperidin-4-yl)ethoxy)-4-(4-methylthiazol-5-yl)benzyl)-1-((S)-2-(1-fluorocyclopropane-1-carboxamido)-3,3-dimethylbutanoyl)-4-hydroxypyrrolidine-2-carboxamide] | 4.0 | 10.6 | – | somewhat decreased
CC(=O)N[C@H](C(=O)N1C[C@H](O)C[C@H]1C(=O)NCc1ccc(-c2scnc2C)cc1OCCCN1CCC(CC(=O)Nc2cccc(Sc3cnc(N4CCC(C)(CN)CC4)cn3)c2Cl)CC1)C(C)(C)C [Example 12, (2S,4R)-1-((S)-2-acetamido-3,3-dimethylbutanoyl)-N-(2-(3-(4-(2-((3-((5-(4-(aminomethyl)-4-methylpiperidin-1-yl)pyrazin-2-yl)thio)-2-chlorophenyl)amino)-2-oxoethyl)piperidin-1-yl)propoxy)-4-(4-methylthiazol-5-yl)benzyl)-4-hydroxypyrrolidine-2-carboxamide] | 23.9 | 88.4 | 93.3 | –
Cc1ncsc1-c1ccc(CNC(=O)[C@@H]2C[C@@H](O)CN2C(=O)[C@@H](NC(=O)C2(F)CC2)C(C)(C)C)c(OCCCC2CCN(C(=O)C(=O)Nc3cccc(Sc4cnc(N5CCC(C)(CN)CC5)cn4)c3Cl)CC2)c1 [Example 28, (2S,4R)—N-(2-(3-(1-(2-((3-((5-(4-(aminomethyl)-4-methylpiperidin-1-yl)pyrazin-2-yl)thio)-2-chlorophenyl)amino)-2-oxoacetyl)piperidin-4-yl)propoxy)-4-(4-methylthiazol-5-yl)benzyl)-1-((S)-2-(1-fluorocyclopropane-1-carboxamido)-3,3-dimethylbutanoyl)-4-hydroxypyrrolidine-2-carboxamide] | 19 | 76.5 | 94 | –
